Measured values taken from ChEMBL document CHEMBL1143256, “Design, synthesis and preliminary pharmacological evaluation of new piperidine and piperazine derivatives as cognition-enhancers” (2008).

Each compound was assayed on Mus musculus (assay: Antiamnesic activity in sc dosed mouse after 30 mins by passive avoidance test). Details: 0.5 h, read-out: MED.
Type: functional
Compound `CCC(=O)NC1CCN(S(=O)(=O)c2ccc(F)cc2)CC1` has a minimal effective dose of 0.1 mg/kg.
In the case of `CCC(=O)NC1CCCN(C(C)=O)C1` (stereo unspecified), the minimal effective dose is reported as 1 mg/kg.
Compound `CCC(=O)NCC1CCCN(S(=O)(=O)c2ccc(F)cc2)C1` (stereo unspecified) has a minimal effective dose of 10 mg/kg.
In the case of `CCC(=O)NC1CCN(C(=O)c2ccccc2)CC1`, the minimal effective dose is reported as 0.1 mg/kg.
`CC(=O)N1CCC(NS(=O)(=O)c2ccc(F)cc2)CC1` gave a minimal effective dose of 0.1 mg/kg.
Compound `CCC(=O)N1CCN(C(=O)c2ccccc2)CC1` [SUNIFIRAM] has a minimal effective dose of 0.001 mg/kg.
Work on `CCC(=O)NC1CCCN(S(=O)(=O)c2ccc(F)cc2)C1` (stereo unspecified) yielded a minimal effective dose of 1 mg/kg.
For `CCC(=O)N1CCN(C(=O)c2ccccc2)CC1=O`, the minimal effective dose was 10 mg/kg.
With `CC(=O)N1CCN(C(=O)c2ccccc2)CC1=O` the minimal effective dose was 10 mg/kg.
With `CCC(=O)N1CCC(CNS(=O)(=O)c2ccc(F)cc2)CC1` the minimal effective dose was 1 mg/kg.
`O=S(=O)(NCC1CCN(S(=O)(=O)c2ccc(F)cc2)CC1)c1ccc(F)cc1` was tested, and the minimal effective dose was 1 mg/kg.
Compound `CCC(=O)N1CCC(NS(=O)(=O)c2ccc(F)cc2)CC1` has a minimal effective dose of 10 mg/kg.
Compound `CC(=O)NC1CCN(S(=O)(=O)c2ccc(F)cc2)CC1` [SAPUNIFIRAM] has a minimal effective dose of 0.01 mg/kg.
`CCCN1CCN(S(=O)(=O)c2ccc(F)cc2)CC1` was tested, and the minimal effective dose was 1 mg/kg.
With `CCC(=O)N1CCN(Cc2ccccc2)CC1` the minimal effective dose was 10 mg/kg.
Compound `CC(=O)N1CCCC(NS(=O)(=O)c2ccc(F)cc2)C1` (stereo unspecified) has a minimal effective dose of 1 mg/kg.
With `CCC(=O)N1CCCC(NC(=O)c2ccccc2)C1` (stereo unspecified) the minimal effective dose was 1 mg/kg.
For `CC(=O)N1CCN(S(=O)(=O)c2ccc(F)cc2)CC1=O`, the minimal effective dose was 0.3 mg/kg.
For `CCC(=O)NCC1CCN(C(=O)c2ccccc2)CC1`, the minimal effective dose was 1 mg/kg.
For `CCC(=O)N1CCN(Cc2ccccc2)C(=O)C1`, the minimal effective dose was 10 mg/kg.
`CC(C)S(=O)(=O)N1CCCC(NS(=O)(=O)c2ccc(F)cc2)C1` (stereo unspecified) was tested, and the minimal effective dose was 10 mg/kg.
In the case of `CCC(=O)N1CCN(S(=O)(=O)c2ccc(F)cc2)CC1`, the minimal effective dose is reported as 0.01 mg/kg.
In the case of `CC(=O)NC1CCCN(S(=O)(=O)c2ccc(F)cc2)C1` (stereo unspecified), the minimal effective dose is reported as 1 mg/kg.
In the case of `CC(=O)N1CCN(C(=O)c2ccccc2)C(=O)C1`, the minimal effective dose is reported as 10 mg/kg.
Compound `CC(=O)N1CCN(S(=O)(=O)c2ccc(F)cc2)CC1` has a minimal effective dose of 0.01 mg/kg.
For `CCC(=O)N1CCN(S(=O)(=O)c2ccc(F)cc2)CC1=O`, the minimal effective dose was 0.3 mg/kg.
For `CC(=O)N1CCN(C(=O)c2ccccc2)CC1`, the minimal effective dose was 10 mg/kg.
`CCC(=O)N1CCCC(NS(=O)(=O)c2ccc(F)cc2)C1` (stereo unspecified) was tested, and the minimal effective dose was 10 mg/kg.
`CC(C)S(=O)(=O)NC1CCCN(C(=O)c2ccccc2)C1` (stereo unspecified) showed a minimal effective dose of 1 mg/kg.
`CC(C)S(=O)(=O)NC1CCCN(S(=O)(=O)c2ccc(F)cc2)C1` (stereo unspecified) showed a minimal effective dose of 1 mg/kg.
`CC(=O)NCC1CCCN(S(=O)(=O)c2ccc(F)cc2)C1` (stereo unspecified) gave a minimal effective dose of 10 mg/kg.
